Target: Keap1 (Homo sapiens (Human), UniProt Q14145)
Test: HEK293 ARE luciferase assay
Type: cell-based
Conditions: HEK-293 ARE firefly luciferase transiently transfected cells; 18 h incubation; mean of 1 to 20 individual measurements
Description: The purpose of this assay is to identify small molecule inhibitors of Keap1, preventing Keap1 binding to Nrf2, and thus activating the Nrf2 signalling pathway in HEK-293 ARE firefly luciferase transiently transfected cells. HEK-293 cells express wild-type Keap1 protein and therefore have low constitutive levels of Nrf2 protein and Nrf2-dependent transcription. […] When Keap1 is inhibited, Nrf2 signalling is activated, and there is an increase in luciferase expression and light emission.
Cryopreserved HEK ARE luciferase cells were rapidly thawed in a 37° C. water bath and resuspended in assay culture medium (DMEM, 10% FCS, 2 mM L-glutamine). The cell suspension was pelleted by centrifugation ([…]; 300 g) using a Heraeus benchtop centrifuge. Supernatant was removed and the pellet was gently resuspended in 5 mL culture medium per vial. Cell viability and cell number was measured using an Invitrogen Countess automated cell counter (typical viability 80%), and cells were diluted to a density of 5.0×10^5 cells/mL.
Cells were then plated out into white 384-well plates (Greiner 781080) using a Multidrop Combi, 20 μL/well, to give 10,000 cells/well. As appropriate, test compounds had been added to wells prior to dispensing cells using an Echo 555 acoustic dispenser (Labcyte). Plates were left at room temperature for ˜10 min to promote even cell settling across the plate before incubation for 18 h at 37° C., 95% humidity and 5% CO2.
After 18 h incubation, plates were removed from the incubator and allowed to cool to room temperature for 30 min, before 10 μL per well SteadyGlo reagent detection reagent was added (as per manufacturer's instructions, 10 min before required 10 mL room temperature buffer was added to one vial of lyophilised substrate and inverted several times to fully dissolve). Plates were then incubated in the dark for 30 min before reading on an Envision plate reader.
Compounds were acoustically dispensed using a Labcyte Echo, using a 10 pt dose curve with a top concentration of 100 μM. Assay wells were backfilled with DMSO to a total of 60 nL to maintain 0.3% (v/v) DMSO through the assay.
The Stimulator signal was defined using 30 μM tert-butyl hydroquinone (tBHQ) and the Neutral signal by DMSO vehicle control. All calculations were performed using GeneData.
In IBIS Column Calculations, Assay Type was set to ‘Stimulator’, and the Activity Threshold was set to 50.
The mean values were calculated from anywhere from 1 to 20 individual measurements.

Chain of Keap1 (Q14145 whole entry): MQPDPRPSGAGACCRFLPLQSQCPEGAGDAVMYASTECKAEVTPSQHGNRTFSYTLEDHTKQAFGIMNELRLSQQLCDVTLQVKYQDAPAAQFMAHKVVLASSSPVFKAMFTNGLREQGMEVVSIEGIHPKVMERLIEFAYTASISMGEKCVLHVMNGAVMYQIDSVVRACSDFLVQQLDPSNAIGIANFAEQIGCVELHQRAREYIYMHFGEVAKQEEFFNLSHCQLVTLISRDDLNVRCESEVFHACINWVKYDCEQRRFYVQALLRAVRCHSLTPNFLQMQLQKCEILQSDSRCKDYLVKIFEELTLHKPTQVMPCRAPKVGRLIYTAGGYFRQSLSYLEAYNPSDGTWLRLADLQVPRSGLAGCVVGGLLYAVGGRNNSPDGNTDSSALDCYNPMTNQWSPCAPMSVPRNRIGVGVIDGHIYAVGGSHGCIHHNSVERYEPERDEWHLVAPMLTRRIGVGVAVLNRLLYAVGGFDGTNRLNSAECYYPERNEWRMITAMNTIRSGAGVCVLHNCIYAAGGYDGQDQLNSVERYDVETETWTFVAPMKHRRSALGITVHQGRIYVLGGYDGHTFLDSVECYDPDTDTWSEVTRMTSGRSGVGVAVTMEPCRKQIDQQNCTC

| SMILES | EC50 |
| --- | --- |
| COC1(c2ccc(Br)cn2)C=C(C#N)C(=O)C(C)(C)C1 (stereo not drawn) [Compound 113, 3-(5-bromopyridin-2-yl)-3-methoxy-5,5-dimethyl-6-oxocyclohex-1-ene-1-carbonitrile] | 343 nM |
| COC1(c2ccccn2)C=C(C#N)C(=O)C(C)(C)C1 (stereo not drawn) [Compound 11, 3-methoxy-5,5-dimethyl-6-oxo-3-(2-pyridyl)cyclohexene-1-carbonitrile] | 85 nM |
| COC1(c2ncc(F)cc2-c2cnc(C)s2)C=C(C#N)C(=O)C(C)(C)C1 (stereo not drawn) [Compound 168, 3-[5-fluoro-3-(2-methyl-1,3-thiazol-5-yl)pyridin-2-yl]-3-methoxy-5,5-dimethyl-6-oxocyclohex-1-ene-1-carbonitrile] | 12 nM |
| COC1(c2ncccc2Cl)C=C(C#N)C(=O)C(C)(C)C1 (stereo not drawn) [Compound 114, 3-(3-chloropyridin-2-yl)-3-methoxy-5,5-dimethyl-6-oxocyclohex-1-ene-1-carbonitrile] | 235 nM |
| COC1(c2ncc(F)cc2-c2cnc(C)c(F)c2)C=C(C#N)C(=O)C(C)(C)C1 (single isomer, unassigned) [Compound 230, 3-(5,5′-difluoro-6′-methyl[3,3′-bipyridin]-2-yl)-3-methoxy-5,5-dimethyl-6-oxocyclohex-1-ene-1-carbonitrile] | 16 nM |
| COC1(c2ncc(F)cc2-c2cnccc2C#N)C=C(C#N)C(=O)C(C)(C)C1 (single isomer, unassigned) [Compound 217, 2′-[3-cyano-1-methoxy-5,5-dimethyl-4-oxocyclohex-2-en-1-yl]-5′-fluoro[3,3′-bipyridine]-4-carbonitrile] | 12 nM |
| COC1(c2ncc(F)cc2C(F)F)C=C(C#N)C(=O)C2(CC2)C1 (single isomer, unassigned) [Compound 63, 7-[3-(difluoromethyl)-5-fluoropyridin-2-yl]-7-methoxy-4-oxospiro[2.5]oct-5-ene-5-carbonitrile] | 18 nM |
| COC1(c2ncccc2C(F)(F)F)C=C(C#N)C(=O)C2(CCCC2)C1 (single isomer, unassigned) [Compound 66, 9-methoxy-6-oxo-9-[3-(trifluoromethyl)pyridin-2-yl]spiro[4.5]dec-7-ene-7-carbonitrile] | 126 nM |
| COC1(c2scnc2C)C=C(C#N)C(=O)C(C)(C)C1 (stereo not drawn) [Compound 150, 3-methoxy-5,5-dimethyl-3-(4-methyl-1,3-thiazol-5-yl)-6-oxocyclohex-1-ene-1-carbonitrile] | 147 nM |
| COC1(c2cncc(C)n2)C=C(C#N)C(=O)C2(CC2)C1 (stereo not drawn) [Compound 131, 7-methoxy-7-(6-methylpyrazin-2-yl)-4-oxospiro[2.5]oct-5-ene-5-carbonitrile] | 464 nM |
| COC1(c2ncccc2C(F)F)C=C(C#N)C(=O)C2(CC2)C1 (stereo not drawn) [Compound 132, 7-[3-(difluoromethyl)pyridin-2-yl]-7-methoxy-4-oxospiro[2.5]oct-5-ene-5-carbonitrile] | 150 nM |
| CCOC1(c2ncccc2C(F)(F)F)C=C(C#N)C(=O)C(C)(C)C1 (stereo not drawn) [Compound 143, 3-ethoxy-5,5-dimethyl-6-oxo-3-[3-(trifluoromethyl)pyridin-2-yl]cyclohex-1-ene-1-carbonitrile] | 139 nM |
| COC1(c2ncc(F)cc2-c2cncc(F)c2)C=C(C#N)C(=O)C(C)(C)C1 (stereo not drawn) [Compound 182, 3-(5,5′-difluoro[3,3′-bipyridin]-2-yl)-3-methoxy-5,5-dimethyl-6-oxocyclohex-1-ene-1-carbonitrile] | 105 nM |
| COC1(c2ncc(Cl)cc2C(F)F)C=C(C#N)C(=O)C(C)(C)C1 (single isomer, unassigned) [Compound 45, 3-(5-chloro-3-(difluoromethyl)py-ridin-2-yl)-3-methoxy-5,5-dimethyl-6-oxocyclohex-1-enecarbonitrile] | 28 nM |
| COC1(c2sc(C)nc2C)C=C(C#N)C(=O)C(C)(C)C1 (stereo not drawn) [Compound 46, 3-(2,4-dimethylthiazol-5-yl)-3-methoxy-5,5-dimethyl-6-oxocyclohex-1-enecarbonitrile] | 304 nM |

Reference: US11479539B2, “Small molecule modulators of the BTB domain of Keap1” (MedImmune Limited, priority 2017, dated 2022)
